Test results as given in patent US11700870B2, “Use of tri- and tetra-saccharides as taste modulators” (Tate & Lyle Solutions USA LLC, priority 2016, dated 2023).

Assays:
[1] = as compared to sucrose; cited from earlier work
[2] = on a weight basis; cited from earlier work
[3] = system: panelists; test: Sweetness rating against sucrose SEV reference solutions; type: in vivo, human; conditions: for sweetness equivalence, as % solution of sucrose: 10% solution of the saccharide
Method: (§1) Additional sensory testing was carried out in accordance with the following procedure. The general framework for the sensory testing was to compare various concentrations of steviol glycoside (rebaudioside A) ranging from 100 ppm to as high as 2000 ppm at intervals spaced to characterize an adequate dose response. Due to known carryover effects, products were served as no more than two products per day, generally served as one of the following pairs: 100 ppm/250 ppm; 500 ppm/1000 ppm; 750 ppm/1500 ppm; 1000 ppm/2000 ppm. The products were not served counterbalanced, but were instead served in ascending concentration to allow for cleaner reads on both data points. The solutions were served in 2 ounce soufflé cups coded with 3-digit codes at room temperature. Store-purchased distilled water and unsalted crackers were available for the panelists to clear their palates before and during testing. Each daily study targeted 30 persons, though at times as fewer panelists were tested due to exclusionary requirements (i.e., those who are lactating, pregnant, on medication, etc., begin the study but then drop out during the study).
The study was designed as a rating study using an anchored scale of references of sucrose solutions in neutral pH water. In this study, panelists received a series of reference samples labeled and identified with their SEV equivalence. The range exceeded the expected sweetness of the test sample and panelists rated the sweetness using a 15-pt maximum that exceeds the expected sweetness of the test sample.
Because one cannot predict the sensitivities of all individuals effectively prior to testing, a broader range of references was used. Specifically, SEV references were as follows (the percentages stated are in weight %):
(§2) Panelists first were asked to familiarize themselves with the intensity of each reference solution and its corresponding SEV. Next, they waited 30 sec and cleansed their palate with water and a cracker. Then panelists were asked to taste the test sample (identified by a random 3-digit code). Then they were instructed to drag a marker on a line scale to match the sweetness of their test samples relative to the references noted above, with the scale ranging from 0 to 15. The value they selected was shown above the line scale so panelists were aware of what values they were indicating. Once this was complete, inquiries related to the liking of the test sample, the similarity of the taste of the test sample to sugar, the intensity of any off flavors, and the identity of any off flavors were asked.

[4] = system: panelists; test: Comparative bitterness of 1000 ppm rebaudioside A 97 solutions, three panelists; type: in vivo, human; conditions: for masking the bitterness of rebaudioside A 97: conclusion from the panel, 10% with 1000 ppm rebaudioside A 97
Method: Three aqueous solutions of 1000 ppm rebaudioside A 97 (rebaudioside A having a purity of 97%) were prepared with 10% maltotriose, 2.5% sucrose, or no additional component. The sweetness of a 10% maltotriose solution is approximately equal to a 2.5% sucrose solution. Three panelists were asked to assess the samples for comparative bitterness and were instructed to rinse with water between samples in order to mute any carry-over effects. […] One panelist found the sucrose-containing solution to be the most bitter. […] The panelist that reported the sucrose-containing solution to be less bitter than the maltotriose containing solution, self-identified as an individual not particularly sensitive to the bitterness of rebaudioside A 97. Therefore, the bitterness masking effect of maltotriose may be more plainly observed in those more sensitive to the bitterness of rebaudioside A 97.
Three aqueous solutions of 1000 ppm rebaudioside A 97 were prepared with 10% maltotetraose-enriched syrup (containing 60% maltotetraose on a dry weight basis with other carbohydrates including maltotriose, maltose and glucose), 2.5% sucrose, or no additional component. As a note, the sweetness of a 10% maltotetraose solution is roughly equal to a 2.5% sucrose solution. Three panelists were asked to assess the samples for comparative bitterness and were instructed to rinse with water between samples in order to mute any carry-over effects. […] Therefore, the bitterness masking effect of maltotetraose may be more plainly observed in those sensitive to the bitterness of rebaudioside A 97.

[5] = system: panelists; test: Off flavor intensity rating across the rebaudioside A dose response; type: in vivo, human
Method: as §1
as §2, with “asked. […]” for “asked.”

[6] = system: human sense of taste; test: Taste threshold concentration in aqueous solution; type: in vivo; conditions: neutral aqueous solution containing no other ingredients
From the text: As used herein, the term “taste threshold concentration associated with the tri-/tetra-saccharide(s)” means the minimum concentration at which a person can still taste the tri-/tetra-saccharide(s) by the human sense of taste, in particular in an aqueous solution containing no ingredient other than water and the tri-/tetra-saccharide(s). This taste threshold concentration may vary somewhat from person to person. For example, melezitose has a taste threshold concentration of about 2.5% by weight in a neutral aqueous solution containing no other ingredients.

[7] = dissolves in 100 g water at 21° C.; cited from earlier work
[8] = recent studies, Food Chemistry 132 (2012) 1951-1958; cited from earlier work
[9] = system: S. mutans; conditions: recent studies, Food Chemistry 132 (2012) 1951-1958; cited from earlier work

## OC[C@H]1O[C@H](OC[C@H]2O[C@H](OC[C@H]3O[C@H](O[C@]4(CO)O[C@H](CO)[C@@H](O)[C@@H]4O)[C@H](O)[C@@H](O)[C@@H]3O)[C@H](O)[C@@H](O)[C@H]2O)[C@H](O)[C@@H](O)[C@H]1O [Stachyose, stachyose]
[1]
  degree of digestibility: low
[2]
  sweetness relative to sucrose: approximately 28%

## OC[C@H]1O[C@H](O[C@H]2[C@H](O)[C@@H](O)[C@@H](O[C@H]3[C@H](O)[C@@H](O)[C@@H](O[C@H]4[C@H](O)[C@@H](O)C(O)O[C@@H]4CO)O[C@@H]3CO)O[C@@H]2CO)[C@H](O)[C@@H](O)[C@@H]1O (some centres unmarked) [maltotetraose]
[3]
  sweetness equivalence, as % solution of sucrose: ~2.5%
[4]
  masking the bitterness of rebaudioside A 97: effective

## OC[C@H]1O[C@@](CO)(O[C@H]2O[C@H](CO)[C@@H](O)[C@H](O)[C@H]2O)[C@@H](O[C@H]2O[C@H](CO)[C@@H](O)[C@H](O)[C@H]2O)[C@@H]1O [melezitose, α-D-glucose (1-3)-β-D-fructose (2-1)-α-D-glucose]
[3]; 5% solution of the saccharide
  sweetness equivalence, as % solution of sugar (sucrose): ~1%
[3]
  sweetness equivalence, as % solution of sucrose: 2.5%
[5]; 5% solution of melezitose (subsweet), FIG. 5
  reduction of off-tastes of Reb A: clear impact on the reduction of off-tastes
[5]; 10% melezitose solution, as sweet as 2.5% sucrose, FIG. 6
  reduction of off-tastes of Reb A: dramatic
[6]
  taste threshold concentration: about 2.5 % by weight
[7]
  solubility in water: 26.8 g
[8]
  digestibility by in vitro assay: not to be digestible
[9]
  utilization by S. mutans in dental caries assay: not utilized

## OC[C@H]1O[C@@](CO)(O[C@H]2O[C@H](CO)[C@@H](O)[C@H](O)[C@H]2O)[C@@H](O)[C@@H]1O [sucrose, reference compound]
[3]; 2.5% solution of sucrose, FIG. 1
  increase of sweet taste perception of the Reb A dose response curve: about 2.5 sweetness units
[5]; 2.5% solution of sucrose, FIG. 4
  reduction of off flavors of Reb A: reduced somewhat
[4]; 1000 ppm rebaudioside A 97 with 2.5% sucrose, two of three panelists (Example 3)
  comparative bitterness versus neat rebaudioside A solution: equal in bitterness to the neat rebaudioside A solution

## maltotriose
[3]
  sweetness equivalence, as % solution of sucrose: ~2.5%
[4]; 1000 ppm rebaudioside A 97 in water with 10% test saccharide
  comparative bitterness versus rebaudioside A control: less bitter than the rebaudioside A control
[4]; 1000 ppm rebaudioside A 97 with 10% test saccharide, versus 2.5% sucrose and no additional component, three panelists
  panelists who found the sample the least bitter of the three samples: Two of the three
[4]; 1000 ppm rebaudioside A 97 with 10% test saccharide, three panelists
  panelists who found the sample less bitter than the rebaudioside A control: All three
[4]
  masking the bitterness of rebaudioside A 97: effective
